Experimental data: patent US20190167771A1, “CONTROL ANGIOGENESIS BY REGULATING PHOSPHORYLATION OF SERYL-tRNA SYNTHETASE (SerRS)” (The Scripps Research Institute, priority 2016, published 2019)

How the values were obtained:
VEGFA [1] = experiment: VEGFA mRNA induction by 12-hour hypoxia in HEK293 cells (qRT-PCR); type: cell-based, human; details: hypoxia 12 hours
Protocol: In FIG. 3B, HEK293 cells were transiently transfected with SerRS^WT or SerRS^S101A/S241A constructs or empty control vector. 24 hours post-transfection, VEGFA mRNA induction by 12-hour-hypoxia treatment was monitored by qRT-PCR (means±SEM from four independent experiments; *P<0.05, **P<0.01, ***P<0.005). In FIG. 3C, HEK293 cells were transiently transfected with indicated constructs. 36 hours post-transfection, VEGFA mRNA induction by 12-hour-hypoxia treatment was monitored by qRT-PCR (means±SEM from four independent experiments; *P<0.0, **P<0.001, ***P<0.0001). The protein levels of SerRS, HIF-1α, and β-actin were examined by western blot (bottom).
Transient transfections were performed using Lipofectamine 2000 (ThermoFisher Scientific).
One gram of the total RNA from each sample was reversely transcribed to cDNA by M-MLV reverse transcriptase (Promega, Madison, Wis., USA). All real-time PCR reactions were performed using the StepOnePlus Real-Time PCR system (ThermoFisher Scientific) with SYBR Select Master Mix ThermoFisher Scientific). […] The PCR reaction program started at 95° C. for 10 min, followed by 45 cycles of 95° C. for 20 seconds and 60° C. for 1 min. Each experiment was carried out in triplicate. The VEGFA gene expression was normalized to that of β-ACTIN. Statistical analyses were performed with the software SigmaPlot (version 10.0). Student's t-test was used to analyze the changes between different groups.

Vegfa [2] = experiment: Vegfa mRNA by qRT-PCR in zebrafish embryos with SerRS knockdown and mRNA co-injection; type: in vivo; details: human SerRS mRNA co-injected with SerRS-MO, 3 dpf
Protocol: In FIG. 2A, wild type SerRS (SerRS^WT), its mutants with double substitutions of serine 101 and 241 with alanine or aspartic acid residues (SerRS^S101A/S241A and SerRS^S101D/S241D), or empty vector were transfected into HEK293 cells. The expression levels of SerRS proteins was measured by immunoblot (bottom) and VEGFA expression was determined by qRT-PCR (means±SEM from three independent experiments; ***P<0.0001). In FIGS. 2B-D, the roles of SerRS^S101A/S241A and SerRS^S101D/S241D in regulating vascular development in vivo in zebrafish were examined by co-injection of SerRS^S101A/S241A and SerRS^S101D/S241D mRNAs into one-cell-stage embryos whose endogenous SerRS was knocked down by injection of antisense morpholino (SerRS-MO) that led to abnormal high expression of Vegfa and hypervascularization (shown by short bold arrows in FIG. 2C). At 3 day post fertilization (dpf), embryos were harvested and Vegfa expression levels were measured by qRT-PCR (means±SEM, n=125-211; *P<0.01, **P<0.001) (B). The development of intersegmental vessel (ISV) at 3 dpf was examined (C) and the statistics of ISV abnormal branching rescued by SerRS^WT or mutant SerRS mRNA injections was analyzed (D; χ^2-test,* P>0.05 vs SerRS^WT, **P>0.1 vs SerRS-MO, ***P<1×10^−28 vs control-MO). In FIG. 2E, the binding affinities of SerRS^WT or SerRS^S101D/S241D with ^32P labeled DNA fragments corresponding to SerRS binding site on human VEGFA promoter were examined by EMSA. In FIG. 2F, the binding of SerRS^WT, SerRS^S101A/S241A, or SerRS^S101D/S241D on VEGFA promoter in HEK293 cells was examined by chromatin immunoprecipitation (ChIP) and qPCR (means±SEM from two independent experiments; ***P<0.0001). In FIG. 2G, the binding of endogenous SerRS on VEGFA promoter during hypoxia course was monitored by ChIP (means±SEM from three independent experiments; *P<0.05, **P<0.005 vs normal).
Total RNA was isolated from cells and zebrafish embryos by TRIzol Reagent (ThermoFisher Scientific). […] of the total RNA from each sample was reversely transcribed to cDNA by M-MLV reverse transcriptase (Promega, Madison, Wis., USA). All real-time PCR reactions were performed using the StepOnePlus Real-Time PCR system (ThermoFisher Scientific) with SYBR Select Master Mix ThermoFisher Scientific). […]

[3] = overexpression of SerRS construct, 24 hours post-transfection

Substance	VEGFA induction under hypoxia (VEGFA [1]; [3])	rescue of Vegfa mRNA increase caused by SerRS-MO (Vegfa [2])	VEGFA induction under hypoxia (VEGFA [1]; SerRS construct expressed while HIF is knocked down by shRNA (shHIF))
SerRS^WT: wildtype human seryl-tRNA synthetase protein, SEQ ID NO: 1 (mouse wild type used in the 3B11 matrigel assay)	had no effect	rescued or largely rescued	–
SerRS^S101D/S241D: SerRS with double substitutions of S101 and S241 with aspartic acid, mimics the phosphorylated SerRS	–	no rescue effect at all	–
SerRS^S101A/S241A: phosphorylation-deficient human SerRS double mutant, serine 101 and 241 to alanine, SEQ ID NO: 4 (mouse version in matrigel assay)	significantly suppressed VEGFA induction	rescued or largely rescued	completely inhibited VEGFA induction
